How the values were obtained:
Assay in all cases: Test C pre-/postemergence greenhouse test, plant response rating 0-100;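 for Plant response rating (0 to 100), Blackgrass: 0 is no effect and 100 is complete control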;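 for Plant response rating (0 to 100), Ragweed: 0 is no effect and 100 is complete control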;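 for Plant response rating, Blackgrass: 0 is no effect and 100 is complete control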;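 for Plant response rating, Ragweed: 0 is no effect and 100 is complete control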
Format in all cases: in vivo
[1] = tested on: blackgrass (Alopecurus myosuroides);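 note: 0 is no effect and 100 is complete control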
In short: (§1)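 Greenhouse test. Preemergence: seed in loam:sand, sprayed with formulated chemical (solvent + surfactant). Postemergence: 1–4 leaf plants, 2–18 cm, peat-based potting medium. Hold 13–15 d; score visually, 0 (none) to 100 (complete control); dash = not tested.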

corn (Zea mays) = tested on: corn (Zea mays)
In short: as §1

[2] = tested on: galium (catchweed bedstraw, Galium aparine)
In short: as §1

[3] = tested on: johnsongrass (Sorghum halepense)
In short: as §1

[4] = tested on: lambsquarters (Chenopodium album)
In short: as §1

[5] = tested on: large (Lg) crabgrass (Digitaria sanguinalis)
In short: as §1

[6] = tested on: morningglory (Ipomoea coccinea)
In short: as §1

[7] = tested on: pigweed (Amaranthus retroflexus)
In short: as §1

[8] = tested on: ragweed (common ragweed, Ambrosia elatior);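 note: 0 is no effect and 100 is complete control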
In short: as §1

[9] = tested on: velvetleaf (Abutilon theophrasti)
In short: as §1

[10] = tested on: winter wheat (Triticum aestivum)
In short: as §1

[11] = tested on: yellow nutsedge (Cyperus esculentus)
In short: as §1

[12] = Postemergence, 250 g ai/ha, scale 0 to 100

## O=C(c1cncc(F)c1)c1c[nH]nc1-c1cc(Cl)cc(Cl)c1 [Compound 19]
[1]; Postemergence, 31 g ai/ha
  Plant response rating (0 to 100), Blackgrass: 0
[1]; Postemergence, 62 g ai/ha
  Plant response rating (0 to 100), Blackgrass: 0
[1]; Postemergence, 125 g ai/ha, scale 0 to 100
  Plant response rating, Blackgrass: 0
[1]; [12]
  Plant response rating, Blackgrass: 0
[1]; Preemergence, 31 g ai/ha
  Plant response rating, Blackgrass: 10
[1]; Preemergence, 62 g ai/ha
  Plant response rating, Blackgrass: 0
[1]; Preemergence, 125 g ai/ha
  Plant response rating, Blackgrass: 0
[1]; Preemergence, 250 g ai/ha
  Plant response rating, Blackgrass: 50
Corn (Zea mays); Postemergence, 31 g ai/ha
  Plant response rating (0 to 100), Corn: 0
Corn (Zea mays); Postemergence, 62 g ai/ha
  Plant response rating (0 to 100), Corn: 0
Corn (Zea mays); Postemergence, 125 g ai/ha
  Plant response rating (0 to 100), Corn: 0
Corn (Zea mays); [12]
  Plant response rating, Corn: 0
Corn (Zea mays); Preemergence, 31 g ai/ha
  Plant response rating, Corn: 0
Corn (Zea mays); Preemergence, 62 g ai/ha
  Plant response rating, Corn: 0
Corn (Zea mays); Preemergence, 125 g ai/ha
  Plant response rating, Corn: 0
Corn (Zea mays); Preemergence, 250 g ai/ha
  Plant response rating, Corn: 0
[2]; Postemergence, 31 g ai/ha
  Plant response rating (0 to 100), Galium: 15
[2]; Postemergence, 62 g ai/ha
  Plant response rating (0 to 100), Galium: 40
[2]; Postemergence, 125 g ai/ha
  Plant response rating (0 to 100), Galium: 40
[2]; [12]
  Plant response rating, Galium: 45
[2]; Preemergence, 31 g ai/ha
  Plant response rating, Galium: 0
[2]; Preemergence, 62 g ai/ha
  Plant response rating, Galium: 80
[2]; Preemergence, 125 g ai/ha
  Plant response rating, Galium: 95
[2]; Preemergence, 250 g ai/ha
  Plant response rating, Galium: 100
[3]; Postemergence, 62 g ai/ha
  Plant response rating (0 to 100), Johnsongrass: 0
[3]; Postemergence, 125 g ai/ha
  Plant response rating (0 to 100), Johnsongrass: 0
[3]; [12]
  Plant response rating, Johnsongrass: 0
[3]; Preemergence, 31 g ai/ha
  Plant response rating, Johnsongrass: 0
[3]; Preemergence, 62 g ai/ha
  Plant response rating, Johnsongrass: 0
[3]; Preemergence, 125 g ai/ha
  Plant response rating, Johnsongrass: 0
[3]; Preemergence, 250 g ai/ha
  Plant response rating, Johnsongrass: 0
[4]; Postemergence, 62 g ai/ha
  Plant response rating (0 to 100), Lambsquarters: 10
[4]; Postemergence, 125 g ai/ha
  Plant response rating (0 to 100), Lambsquarters: 15
[4]; [12]
  Plant response rating, Lambsquarters: 10
[4]; Preemergence, 31 g ai/ha
  Plant response rating, Lambsquarters: 100
[4]; Preemergence, 62 g ai/ha
  Plant response rating, Lambsquarters: 100
[4]; Preemergence, 125 g ai/ha
  Plant response rating, Lambsquarters: 100
[4]; Preemergence, 250 g ai/ha
  Plant response rating, Lambsquarters: 100
[5]; Postemergence, 31 g ai/ha
  Plant response rating (0 to 100), Crabgrass, Large: 0
[5]; Postemergence, 62 g ai/ha
  Plant response rating (0 to 100), Crabgrass, Large: 0
[5]; Postemergence, 125 g ai/ha
  Plant response rating (0 to 100), Crabgrass, Large: 10
[5]; [12]
  Plant response rating, Crabgrass, Large: 10
[5]; Preemergence, 31 g ai/ha
  Plant response rating, Crabgrass, Large: 0
[5]; Preemergence, 62 g ai/ha
  Plant response rating, Crabgrass, Large: 0
[5]; Preemergence, 125 g ai/ha
  Plant response rating, Crabgrass, Large: 0
[5]; Preemergence, 250 g ai/ha
  Plant response rating, Crabgrass, Large: 0
[6]; Postemergence, 62 g ai/ha
  Plant response rating (0 to 100), Morningglory: 0
[6]; Postemergence, 125 g ai/ha
  Plant response rating (0 to 100), Morningglory: 0
[6]; [12]
  Plant response rating, Morningglory: 0
[6]; Preemergence, 31 g ai/ha
  Plant response rating, Morningglory: 0
[6]; Preemergence, 62 g ai/ha
  Plant response rating, Morningglory: 0
[6]; Preemergence, 125 g ai/ha
  Plant response rating, Morningglory: 0
[6]; Preemergence, 250 g ai/ha
  Plant response rating, Morningglory: 10
[7]; Postemergence, 62 g ai/ha
  Plant response rating (0 to 100), Pigweed: 85
[7]; Postemergence, 125 g ai/ha
  Plant response rating (0 to 100), Pigweed: 90
[7]; [12]
  Plant response rating, Pigweed: 95
[7]; Preemergence, 31 g ai/ha
  Plant response rating, Pigweed: 75
[7]; Preemergence, 62 g ai/ha
  Plant response rating, Pigweed: 85
[7]; Preemergence, 125 g ai/ha
  Plant response rating, Pigweed: 100
[7]; Preemergence, 250 g ai/ha
  Plant response rating, Pigweed: 100
[8]; Postemergence, 62 g ai/ha
  Plant response rating (0 to 100), Ragweed: 70
[8]; Postemergence, 125 g ai/ha
  Plant response rating (0 to 100), Ragweed: 80
[8]; [12]
  Plant response rating, Ragweed: 90
[8]; Preemergence, 62 g ai/ha
  Plant response rating, Ragweed: 85
[8]; Preemergence, 125 g ai/ha
  Plant response rating, Ragweed: 100
[8]; Preemergence, 250 g ai/ha
  Plant response rating, Ragweed: 100
[9]; Postemergence, 62 g ai/ha
  Plant response rating (0 to 100), Velvetleaf: 25
[9]; Postemergence, 125 g ai/ha
  Plant response rating (0 to 100), Velvetleaf: 40
[9]; [12]
  Plant response rating, Velvetleaf: 55
[9]; Preemergence, 62 g ai/ha
  Plant response rating, Velvetleaf: 40
[9]; Preemergence, 125 g ai/ha
  Plant response rating, Velvetleaf: 75
[9]; Preemergence, 250 g ai/ha
  Plant response rating, Velvetleaf: 98
[10]; Postemergence, 62 g ai/ha
  Plant response rating (0 to 100), Wheat: 0
[10]; Postemergence, 125 g ai/ha
  Plant response rating (0 to 100), Wheat: 0
[10]; [12]
  Plant response rating, Wheat: 0
[10]; Preemergence, 62 g ai/ha
  Plant response rating, Wheat: 0
[10]; Preemergence, 125 g ai/ha
  Plant response rating, Wheat: 0
[10]; Preemergence, 250 g ai/ha
  Plant response rating, Wheat: 0
[11]; Postemergence, 62 g ai/ha
  Plant response rating (0 to 100), Nutsedge, Yellow: 5
[11]; Postemergence, 125 g ai/ha
  Plant response rating (0 to 100), Nutsedge, Yellow: 5
[11]; [12]
  Plant response rating, Nutsedge, Yellow: 5
[11]; Preemergence, 31 g ai/ha
  Plant response rating, Nutsedge, Yellow: 0
[11]; Preemergence, 62 g ai/ha
  Plant response rating, Nutsedge, Yellow: 0
[11]; Preemergence, 125 g ai/ha
  Plant response rating, Nutsedge, Yellow: 0
[11]; Preemergence, 250 g ai/ha
  Plant response rating, Nutsedge, Yellow: 0

From US10167262B2, “Herbicidal substituted 3-arylpyrazoles” (FMC CORPORATION, priority 2014, dated 2019)
